# In patent US20180346446A1, “IRE1 SMALL MOLECULE INHIBITORS” (QUENTIS THERAPEUTICS, INC., priority 2017, published 2018):
# Where a name gives a salt, the structure may show the parent alone.
# Columns and labels:
# IRE1a [1] = biological target: T1, IRE1a (Homo sapiens, UniProt O75460); assay: IRE1a Endoribonuclease Nanoluciferase Assay (XBP1 luciferase reporter in 293T cells); format: cell-based; settings: 293T cells transfected with XBP1 luciferase reporter, ER stressors +/- inhibitors
# In short: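 293T cells were transfected with a PGK-Luc2-P2A-XBP1u-nanoluciferase-PEST reporter and plated in 96-well format. A day later they were treated with ER stressors with or without inhibitors. Lysates were read for luminescence with OneGlo, then again after Stop and Glo.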
# 293T cells = assay: Growth assay (cytotoxicity); format: cell-based; settings: 2 day incubation
# Protocol: A growth assay was performed to evaluate the compounds disclosed herein for cytotoxicity. Briefly, 5,000,000 293T cells were resuspended in 18 mL of cDMEM for a final concentration of 277,777 cells/mL. […] In a separate 96 well dilution plate, 199 uL cDMEM and 1 uL of DMSO or any one of the compounds disclosed herein (shown as Test Compound 1, 2, 3, 4, 5, or 6 below) were added to wells A4, A8, C4, C8, E4, E8, G4, and G8. 133.3 uL cDMEM was added to wells 1, 2, 3, 5, 6, and 7 in rows A, C, E and G of the dilution plate. Compounds were serially diluted leftwards in threefold dilutions (66.7 uL into 133.3 uL cDMEM). 20 uL of each dilution was transferred in duplicate (duplicates in vertical paired wells) to the cells plated in the 96-well plate shown in Table 5, to the total concentrations shown below. 200 uL cDMEM was added to media wells (wells G5-H8). The plate was then placed in a humidified chamber for a 2 day incubation, and then photographed (media was more yellow in wells with potent cell growth). Absorbance was then measured at about […] (lower for more acidic media) and about […] (higher for more acidic media).
# hERG channel = biological target: T2, hERG channel (Homo sapiens, UniProt Q12809); assay: hERG potassium ion channel automated planar clamp (QPatch); format: cell-based; settings: hERG channel expressed in a stable CHO cell line, read-out: hERG channel blockade Mean IC50
# T2 construct: expressed in transfected cells
# T2 sequence (Q12809 whole entry): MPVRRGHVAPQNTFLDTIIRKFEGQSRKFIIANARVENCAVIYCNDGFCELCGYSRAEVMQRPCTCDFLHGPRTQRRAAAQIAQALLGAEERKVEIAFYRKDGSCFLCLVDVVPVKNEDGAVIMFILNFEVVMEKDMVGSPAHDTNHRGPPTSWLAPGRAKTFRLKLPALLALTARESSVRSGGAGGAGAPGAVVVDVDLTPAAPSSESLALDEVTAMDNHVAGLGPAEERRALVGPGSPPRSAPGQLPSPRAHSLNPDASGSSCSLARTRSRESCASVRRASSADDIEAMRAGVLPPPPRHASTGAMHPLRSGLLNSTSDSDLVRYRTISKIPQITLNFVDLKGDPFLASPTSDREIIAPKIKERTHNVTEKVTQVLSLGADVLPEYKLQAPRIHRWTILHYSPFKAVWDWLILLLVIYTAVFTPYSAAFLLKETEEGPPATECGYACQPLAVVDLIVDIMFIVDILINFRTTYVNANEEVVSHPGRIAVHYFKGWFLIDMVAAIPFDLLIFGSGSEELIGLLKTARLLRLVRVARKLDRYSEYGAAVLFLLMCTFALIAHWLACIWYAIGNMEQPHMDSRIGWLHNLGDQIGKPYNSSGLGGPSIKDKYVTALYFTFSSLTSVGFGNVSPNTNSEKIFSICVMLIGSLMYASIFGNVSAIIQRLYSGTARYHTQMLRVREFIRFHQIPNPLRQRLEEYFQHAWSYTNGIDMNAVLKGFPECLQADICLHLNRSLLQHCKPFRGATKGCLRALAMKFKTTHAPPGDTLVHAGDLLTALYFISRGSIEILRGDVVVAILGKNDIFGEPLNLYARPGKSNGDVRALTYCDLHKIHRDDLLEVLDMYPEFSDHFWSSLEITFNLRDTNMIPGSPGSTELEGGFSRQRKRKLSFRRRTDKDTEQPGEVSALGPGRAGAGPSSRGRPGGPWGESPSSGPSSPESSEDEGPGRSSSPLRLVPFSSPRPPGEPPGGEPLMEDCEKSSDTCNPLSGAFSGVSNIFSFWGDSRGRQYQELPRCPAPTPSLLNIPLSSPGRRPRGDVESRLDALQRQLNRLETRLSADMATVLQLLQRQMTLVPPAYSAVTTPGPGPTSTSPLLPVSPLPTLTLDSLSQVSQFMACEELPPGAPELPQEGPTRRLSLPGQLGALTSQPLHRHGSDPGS
# Protocol: Blockade of the cardiac ion channel coded by the hERG gene can lead to cardiac arrhythmia. […] To determine the viability of the compounds disclosed herein as pharmacological agents that would not affect the hERG channel blockade, a standard automated planar clamp method was employed to determine the IC50 for various test compounds on their inhibition of the channel. An electrophysiological assay was prepared to measure the electric current passing through the hERG channel expressed in a stable CHO cell line by applying the planar clamp method. This assay was performed using the automated QPatch platform (Sophion, Denmark) which allows fast and accurate electrophysiological characterization of the hERG ion channel and the determination of IC50 values for the test compounds, as shown in Table 9.
# IRE1a [2] = biological target: T1, IRE1a; assay: In vitro FRET assay (XBP1 RNA probe cleavage by IRE1a); format: biochemical; design: purchased SignalChem; settings: 2 nM IRE1a protein
# [3] = Microsome stability assay, human liver microsomes; format: in vitro ADME; settings: formic acid salt
# Protocol: (§1) The formic acid salt of Compound 3 was tested under the microsome stability assay outlined below. Test compounds were incubated at 37° C. with liver microsomes (pooled from multiple donors) at […] in the presence of a NADPH regenerating system at 0.5 mg/ml microsomal protein. Positive controls included Testosterone (3A4 substrate), Propafenone (2D6) and Diclofenac (2C9), which were incubated with microsomes in the presence of an NADPH regenerating system. At time points (0, 5, 10, 20, 30 and 60 minutes), samples were removed and immediately mixed with cold acetonitrile containing internal standard (IS). Test compounds incubated with microsomes without the NADPH regenerating system for 60 min was also included. A single point for each test condition (n=1) was obtained, and samples were analyzed by LC/MS/MS. Disappearance of the test compound was assessed based on peak area ratios of analyte/IS (no standard curve).
# [4] = Microsome stability assay, mouse liver microsomes; format: in vitro ADME; settings: formic acid salt
# Protocol: as §1
# [5] = tested on: IRE1a-mediated XBP1 splicing; assay: Suppression of XBP1 splicing in liver of tunicamycin-injected mice; format: in vivo; settings: 0.25 mg/kg tunicamycin, 10 mg/kg compound intraperitoneal, 4 hours, RT-qPCR
# Protocol: Mice were injected with 0.25 mg/kg tunicamycin dissolved in DMSO: PBS at a ratio of 1:3. After 2 hours, the mice were injected with 10 mg/kg of Compound 3 dissolved in water or water alone as a vehicle control. After an additional 4 hours, the animals were euthanized, livers dissected out, and 2-3 mm^3 liver pieces are flash frozen on dry ice. Liver pieces were then thawed in Trizol on ice, homogenized for 3 minutes with a bead mill at medium-high speed. RNA was then extracted from the Trizol solution according to the manufacturer's recommendation. Gene expression analysis was also performed via Reverse Transcription quantitative PCR (RT-qPCR) using a Stratagene Mx3005 instrument and SYBR green I (Life Technologies). Gene expression was measured of the spliced Xbp1s transcript, a primer set measuring all Xbp1 transcripts, Xbp1s target genes including Sec24d and general ER stress response markers Hspa5 (BiP) and Ddit3 (CHOP).
# [6] = tested on: IRE1a-mediated XBP1 splicing; assay: Inhibition of IRE1a signaling in cell types of the tumor microenvironment (metastatic ovarian cancer mice); format: in vivo; settings: mice with metastatic ovarian cancer, 11 mg/kg, 12 hours, tumor cells, DC, CD4+ and CD8+ T cells from ascites
# Protocol: A syngeneic mouse model for metastatic, orthotopic ovarian cancer was used to analyze the in vivo effects of compounds described herein. Assay conditions were similar to those described in Example 11, administering compound 3 for comparison against controls. […] After 12 hours, the ascites were drained and FACS was used to purify the cells into four populations: tumor cells, dendritic cells (DC), CD4+ T cells, and CD8+ T cells. Then, PCR and qPCR was used to quantify spliced Xbp1 transcripts and total Xbp1 transcripts. […] Compound 3 can therefore inhibit IRE1a-mediated XBP1 splicing in vivo in tumor cells and key immune cell types found within the tumor microenvironment.
# T1 sequence (O75460 19-977): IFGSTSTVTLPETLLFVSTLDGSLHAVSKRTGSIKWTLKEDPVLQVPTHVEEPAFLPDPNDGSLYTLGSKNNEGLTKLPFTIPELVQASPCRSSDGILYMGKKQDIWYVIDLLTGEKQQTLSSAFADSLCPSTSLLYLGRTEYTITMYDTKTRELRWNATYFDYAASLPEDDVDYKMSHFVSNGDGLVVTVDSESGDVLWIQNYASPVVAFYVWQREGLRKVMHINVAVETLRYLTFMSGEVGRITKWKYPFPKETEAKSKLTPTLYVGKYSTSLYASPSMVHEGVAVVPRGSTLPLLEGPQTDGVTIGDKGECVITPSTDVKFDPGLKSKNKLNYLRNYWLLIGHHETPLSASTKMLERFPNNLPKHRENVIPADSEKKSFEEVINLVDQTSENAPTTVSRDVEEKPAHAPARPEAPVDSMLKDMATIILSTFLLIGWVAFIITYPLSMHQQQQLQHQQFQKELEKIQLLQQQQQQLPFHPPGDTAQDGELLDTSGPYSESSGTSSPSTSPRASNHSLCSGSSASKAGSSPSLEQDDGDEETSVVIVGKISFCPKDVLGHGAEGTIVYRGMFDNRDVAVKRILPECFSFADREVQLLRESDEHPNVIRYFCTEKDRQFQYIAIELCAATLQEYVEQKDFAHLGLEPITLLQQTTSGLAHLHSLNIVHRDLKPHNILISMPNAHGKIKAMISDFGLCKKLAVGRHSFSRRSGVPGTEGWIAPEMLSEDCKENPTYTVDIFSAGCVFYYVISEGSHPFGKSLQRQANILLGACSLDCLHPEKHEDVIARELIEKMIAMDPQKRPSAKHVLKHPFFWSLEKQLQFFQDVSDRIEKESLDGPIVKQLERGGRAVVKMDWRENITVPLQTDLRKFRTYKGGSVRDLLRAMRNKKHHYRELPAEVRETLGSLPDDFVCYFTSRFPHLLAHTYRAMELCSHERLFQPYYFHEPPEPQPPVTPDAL
Structure (SMILES),EC50 (IRE1a [1]),% Growth at 0.185 uM (293T cells),% Growth at 0.5556 uM (293T cells),% Growth at 1.667 uM (293T cells),% Growth at 5 uM (293T cells),IC50 (hERG channel),IC50 (IRE1a [2]),HLM Remaining at 60 min ([3]; 60 min),"Human CI ([3]; human liver microsomes, 37° C., NADPH regenerating system)","half-life at 1 NM ([3]; human, liver microsomes (pooled from multiple donors), 37° C., 0.5 mg/ml microsomal protein, NADPH regenerating system, read-out: Human Liver Microsome (HLM) T1/2)","Mouse Liver Microsome CI ([4]; 37° C., NADPH regenerating system)",Mouse Liver Microsome Remaining at 60 min ([4]; 60 min),"half-life at 1 NM ([4]; mouse, liver microsomes (pooled from multiple donors), 37° C., 0.5 mg/ml microsomal protein, NADPH regenerating system, read-out: Mouse Liver Microsome T1/2)",suppression of IRE1a-mediated XBP1 splicing in vivo [5],splicing ratio of XBP1 (spliced Xbp1 transcripts divided by total Xbp1 transcripts) compared to vehicle-treated mice [6]
CCc1cc(-c2ccc(NS(=O)(=O)c3ccccc3Cl)cc2C)cc2cnc(N[C@H]3CC[C@H](N)CC3)nc12.O=CO [3; Formic Acid],5 to 50 nM,D (D: >75% to ≤100%),D (D: >75% to ≤100%),C (C: >50% to ≤75%),A (A: ≤25%),10 to 50 µM,≤ 5 nM,,,,,,,,
CCc1cc(-c2ccc(NS(=O)(=O)c3ccccc3Cl)nc2C)cc2cnc(N[C@H]3CC[C@H](N)CC3)nc12.O=CO [16; Formic Acid],≤ 5 nM,D (D: >75% to ≤100%),D (D: >75% to ≤100%),D (D: >75% to ≤100%),B (B: >25% to ≤50%),10 to 50 µM,≤ 5 nM,,,,,,,,
CCc1cc(-c2ccc(NS(=O)(=O)c3ccccc3Cl)c(F)c2)cc2cnc(N[C@H]3CC[C@H](N)CC3)nc12.O=CO [24; Formic Acid],≤ 5 nM,D (D: >75% to ≤100%),D (D: >75% to ≤100%),C (C: >50% to ≤75%),C (C: >50% to ≤75%),1 to 10 µM,≤ 5 nM,,,,,,,,
CCc1cc(-c2ccc(NS(=O)(=O)c3ccccc3Cl)cc2F)cc2cnc(N[C@H]3CC[C@H](N)CC3)nc12.O=CO [35; Formic Acid],≤ 5 nM,D (D: >75% to ≤100%),D (D: >75% to ≤100%),C (C: >50% to ≤75%),B (B: >25% to ≤50%),,≤ 5 nM,,,,,,,,
CCc1cc(-c2ccc(NS(=O)(=O)c3ccccc3Cl)nc2OC)cc2cnc(N[C@H]3CC[C@H](N)CC3)nc12 [37; HCl ^],≤ 5 nM,,D (D: >75% to ≤100%),C (C: >50% to ≤75%),B (B: >25% to ≤50%),10 to 50 µM,≤ 5 nM,,,,,,,,
CCc1cc(-c2cnc(NS(=O)(=O)c3ccccc3Cl)nc2OC)cc2cnc(N[C@H]3CC[C@H](N)CC3)nc12.O=CO [46; Formic Acid],≤ 5 nM,D (D: >75% to ≤100%),D (D: >75% to ≤100%),D (D: >75% to ≤100%),D (D: >75% to ≤100%),,≤ 5 nM,,,,,,,,
CCc1cc(-c2ncc(NS(=O)(=O)c3ccccc3Cl)cc2F)cc2cnc(N[C@H]3CC[C@H](N)CC3)nc12.O=CO [52; Formic Acid],≤ 5 nM,D (D: >75% to ≤100%),D (D: >75% to ≤100%),D (D: >75% to ≤100%),C (C: >50% to ≤75%),,≤ 5 nM,,,,,,,,
CCc1cc(-c2cnc(NS(=O)(=O)c3ccccc3Cl)c(F)c2)cc2cnc(N[C@H]3CC[C@H](N)CC3)nc12.O=CO [55; Formic Acid],≤ 5 nM,D (D: >75% to ≤100%),D (D: >75% to ≤100%),D (D: >75% to ≤100%),D (D: >75% to ≤100%),,≤ 5 nM,,,,,,,,
CCc1cc(-c2nnc(NS(=O)(=O)c3ccccc3Cl)cc2OC)cc2cnc(N[C@H]3CC[C@H](N)CC3)nc12.O=CO [65; Formic Acid],5 to 50 nM,D (D: >75% to ≤100%),D (D: >75% to ≤100%),D (D: >75% to ≤100%),C (C: >50% to ≤75%),,≤ 5 nM,,,,,,,,
CCc1cc(-c2nnc(NS(=O)(=O)c3ccccc3Cl)cc2C)cc2cnc(N[C@H]3CC[C@H](N)CC3)nc12.O=CO [67; Formic Acid],5 to 50 nM,D (D: >75% to ≤100%),D (D: >75% to ≤100%),C (C: >50% to ≤75%),C (C: >50% to ≤75%),,≤ 5 nM,,,,,,,,
CCc1cc(-c2ccc(NS(=O)(=O)c3ccccc3Cl)c(F)c2)cc2cnc(N[C@H]3CC[C@H](N(C)C)CC3)nc12.O=CO [69; Formic Acid],≤ 5 nM,,D (D: >75% to ≤100%),C (C: >50% to ≤75%),C (C: >50% to ≤75%),10 to 50 µM,≤ 5 nM,,,,,,,,
CCc1cc(-c2ccc(NS(=O)(=O)c3ccccc3Cl)c(F)c2C)cc2cnc(N[C@H]3CC[C@H](N)CC3)nc12.O=CO [71; Formic Acid],≤ 5 nM,D (D: >75% to ≤100%),D (D: >75% to ≤100%),C (C: >50% to ≤75%),B (B: >25% to ≤50%),,≤ 5 nM,,,,,,,,
"CCc1cc(-c2ccc(NS(=O)(=O)c3ccccc3Cl)cc2C)cc2cnc(N[C@H]3CC[C@H](N)CC3)nc12 [Compound 3, N-(4-(2-(((1r,4r)-4-aminocyclohexyl)amino)-8-ethylquinazolin-6-yl)-3-methylphenyl)-2-chlorobenzenesulfonamide]",,,,,,,,44%,29.2 µL/min/mg,47.5 min,31.9 µL/min/mg,41%,43.5 min,potently suppresses,markedly reduced
